Measurements: patent US20150320820A1, “MICROBIOCIDES FROM PLANT EXTRACTS FOR PROTECTION AGAINST HSV 2 INFECTION” (Council of Scientific and Industrial Research, priority 2012, published 2015)
Values after ≈ are worked out from the molar mass of the structure shown.

What was measured:
[1] = test system: HSV-2; experiment: Anti-HSV-2 plaque reduction assay in Vero cells; format: cell-based, Herpes Simplex Virus Type-2; conditions: HSV-2 plaque assay
Experimental: 13 wild plant species belonging to eight families Convolvulaceae (3 species), Polygonaceae (2 species), Anacardiaceae (1 species), Combretaceae (2 species), Lauraceae (1 species), Asteraceae (2 species), Zingiberaceae (1 species) and Rhamnaceae (1 species) were selected.
(§1) The methanol extracts of the plant parts and their fractions separated as less polar, medium polar and polar fractions using column chromatography or solvent separation/partitioning, were assessed for toxicity and subsequently for inhibition of HSV-2 in Vero cells by plaque reduction assay. These extracts and fractions were also tested for anti-HIV-1 activity and inhibition of other sexually transmitted pathogens like C. albicans, N gonorrhoea and H. ducreyi.

[2] = Cytotoxicity in Vero cells; format: cell-based; conditions: African green monkey, cytotoxic concentration
Experimental: as §1
(§2) According to Table 3, the extracts of plant species selected from the group consisting of Polygonum glabrum, Rhus mysorensis, Terminalia paniculata, Cuscuta reflexa, Terminalia crenulata, Cassytha filiformis, Scutia myrtina, were studied for cytotoxicity in Vero cells.

[3] = test system: Vero cells; experiment: Cytotoxicity in Vero cells; format: cell-based; conditions: cytotoxic concentration
Experimental: as §1, §2

[4] = test system: Haemophilus duceryi ATCC 33921; experiment: Anti-Ducreyi activity by agar disc diffusion; format: cell-based, Haemophilus ducreyi; conditions: H. duceryi ATCC 33921 (Tetracycline Sensitive); 10 μg disc, positive control
Experimental: A tetracycline sensitive strain of H. duceryi ([…]) was cultured on Chanchroid agar (GC agar supplemented with 2% haemoglobin, 5% FBS and 1% isovitalex and incubated at 33° C. for 72 hrs. in a candle jar with 45% moisture. The strain was identified by colony characteristics, Gram stain, growth characteristics (requirement for X and V factors) and Tween 80 hydrolysis as described earlier, and stored at −70° C. in brain heart infusion broth containing 20% glycerol.
The inoculum of each strain was prepared following the CLSI guidelines for bacteria and yeasts. The 0.5 McFarland standard inoculums (approx. 1.5×10^8 CFU/ml) of N. gonorrhoeae, H. duceryi and C. albicans were prepared from freshly grown cultures, in sterile 0.85% normal saline and mixed thoroughly. […]
The primary screening of plant extracts for activity against the three microorganisms included in the study was carried out by Kirby Baur agar disc diffusion method as described earlier. […] The discs (extract/fraction and controls) were placed on the plates previously inoculated with the respective bacterial/fungal culture, incubated as mentioned above and the zone of inhibition was recorded. […] The minimum inhibitory and minimum cidal concentrations of the extracts showing inhibition were determined using following methods.

[5] = Human alphaherpesvirus 2, Vero cells

| Compound | IC50 [1, 5] [µg/mL] | IC80 [1, 5] [µg/mL] | TI ([1]; Therapeutic Index) | CC50 [2] [µg/mL] | CC80 [3] [µg/mL] | zone of inhibition [4] [mm] |
| --- | --- | --- | --- | --- | --- | --- |
| Nc1nc2c(ncn2COCCO)c(=O)[nH]1 [Acyclovir] | 5.6 (≈ 24.9 µM) | 2.81 (≈ 12.5 µM) | 151 | 806 (≈ 3580 µM) | 378 (≈ 1680 µM) | – |
| penicillin | – | – | – | – | – | 36 |
